This is an account of results in PubChem BioAssay (NCI).

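96-well plates; 48 h exposure; 5 concentrations. Endpoints by linear interpolation between flanking doses. Not reached: highest tested concentration assigned. GI50: concentration for 50% inhibition of growth. TGI: concentration producing complete growth inhibition.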 Where only a bound is given, the exact number is not on record here.

Among the test systems are HCC-2998 colon; UO-31 renal; NCI-H226 lung; 786-0 renal; IGROV1 ovarian; UACC-62 melanoma; OVCAR-8 ovarian; PC-3 prostate; T-47D breast; DU-145 prostate.
Common to all, as to assay: growth of human tumour cells (NCI), 48 h

Take `COC1CC(OS(=O)(=O)c2ccc(C)cc2)C(OS(=O)(=O)c2ccc(C)cc2)C(COS(=O)(=O)c2ccc(C)cc2)O1` (stereo not drawn): the TGI came out at 49.3 µM in the test on HCC-2998 colon; 12.1 µM in the test on UO-31 renal; 10.4 µM in the test on NCI-H226 lung; 4.06 µM in the test with 786-0 renal; 17.2 µM in the test with IGROV1 ovarian; 18.6 µM in the test with UACC-62 melanoma. This compound gave a TGI in the test with OVCAR-8 ovarian of 6.06 µM.
For `CN(C)c1ccc(/C=C2\N=C(c3ccc(N)cc3)OC2=O)cc1`, the TGI in the test on HCC-2998 colon, with UO-31 renal, in the test with NCI-H226 lung, with 786-0 renal, with IGROV1 ovarian and with UACC-62 melanoma was > 100 µM throughout. Further, the TGI in the test with OVCAR-8 ovarian was > 100 µM.
Take `Cc1cc2c(c(C#N)c1C)NC(=O)C(CC(=O)O)C2=O` (stereo not drawn): the TGI in the test with HCC-2998 colon, in the test on UO-31 renal, in the test with NCI-H226 lung, in the test on 786-0 renal, with IGROV1 ovarian and with UACC-62 melanoma was > 100 µM each time. The TGI in the test on OVCAR-8 ovarian is > 100 µM.
Consider `COc1ccc2nc(NC(=O)C(=O)CC(=O)c3ccc(Cl)cc3)sc2c1`, for which the TGI in the test on HCC-2998 colon, in the test with UO-31 renal, in the test on NCI-H226 lung, in the test with 786-0 renal, in the test with IGROV1 ovarian and with UACC-62 melanoma was > 100 µM each time. Further, the TGI in the test on OVCAR-8 ovarian was > 100 µM.
On to `CCCCC(=O)[O-].N.N.N.N.N.[Co+3].[O-][Cl+3]([O-])([O-])[O-]`, for which the GI50 in the test with HCC-2998 colon, in the test on UO-31 renal, in the test with 786-0 renal, with IGROV1 ovarian, in the test with UACC-62 melanoma and with OVCAR-8 ovarian was > 100 µM throughout. The TGI in the test on HCC-2998 colon, in the test on UO-31 renal, in the test with 786-0 renal, in the test on IGROV1 ovarian, in the test on UACC-62 melanoma and in the test with OVCAR-8 ovarian was > 100 µM each time.
`CCOC(=O)C#Cc1ccc(C#CC(=O)OCC)cc1`: the TGI was > 28.4 µM in the test on PC-3 prostate; > 100 µM with T-47D breast; > 28 µM in the test on DU-145 prostate; > 23.7 µM with NCI-H226 lung; > 27.9 µM in the test with 786-0 renal; > 100 µM with IGROV1 ovarian. The TGI is > 23.4 µM with UACC-62 melanoma and > 23.2 µM in the test with OVCAR-8 ovarian.
Regarding `Cc1c(C(=O)CC(=O)C(=O)Nc2cccc(C(F)(F)F)c2)[n+](=O)c2ccccc2n1[O-]`, the TGI is 16.1 µM in the test on HCC-2998 colon; 30.2 µM in the test on UO-31 renal; 80.8 µM in the test on NCI-H226 lung; 21.5 µM with 786-0 renal; 9.34 µM in the test on IGROV1 ovarian; 7.55 µM in the test with UACC-62 melanoma. The TGI in the test on OVCAR-8 ovarian was found to be 6.34 µM.
For `N#CC1(c2nc3ccccc3o2)C(=O)C(=O)N(c2ccc(Cl)c(Cl)c2)C(=O)C1=O`, the TGI in the test on HCC-2998 colon, in the test on UO-31 renal, in the test on NCI-H226 lung, in the test with 786-0 renal and in the test with OVCAR-8 ovarian was > 100 µM throughout.
`Cc1nc(Nc2ccc(F)c(Cl)c2)sc1C(=O)O`: the GI50 with PC-3 prostate is 1.75 µM; in the test with DU-145 prostate, 2.22 µM; in the test with UO-31 renal, 1.16 µM; in the test with NCI-H226 lung, 1.77 µM; with 786-0 renal, 1.74 µM; in the test on IGROV1 ovarian it was 1.63 µM. Besides, the GI50 was 1.17 µM with UACC-62 melanoma and 2.14 µM with OVCAR-8 ovarian. Moreover, the TGI amounted to 4.8 µM in the test on PC-3 prostate; 7.84 µM in the test with DU-145 prostate; 2.82 µM with UO-31 renal; 5.37 µM in the test on NCI-H226 lung; 3.98 µM with 786-0 renal; 5.03 µM in the test with IGROV1 ovarian. The TGI turned out to be 2.62 µM in the test on UACC-62 melanoma and 4.82 µM in the test with OVCAR-8 ovarian.
With `O[C@]12CCCC[C@H]1CCC2`, the TGI in the test on HCC-2998 colon, in the test on UO-31 renal, in the test with 786-0 renal, with IGROV1 ovarian, in the test on UACC-62 melanoma and in the test with OVCAR-8 ovarian was > 100 µM throughout.
Turning to `CC[O-].CC[O-].O=Nc1ccc2cc([O-])ccc2c1.O=Nc1ccc2cc([O-])ccc2c1.[Ti+4]`, the GI50 with HCC-2998 colon was 3.3 µM; with UO-31 renal it was 1.78 µM; in the test with NCI-H226 lung, 1.67 µM; in the test on 786-0 renal it was 1.61 µM; in the test on UACC-62 melanoma it was 2.44 µM; in the test with OVCAR-8 ovarian, 1.47 µM. Besides, the TGI in the test with HCC-2998 colon worked out at 14.2 µM; with UO-31 renal, 3.63 µM; with NCI-H226 lung it was 3.86 µM; in the test on 786-0 renal, 3.05 µM; with OVCAR-8 ovarian it was 3.28 µM.
Turning to `CCc1nc2ccc(Cc3ccc(C(=O)NO)cc3)cc2c(=O)n1CCc1ccccc1`, the GI50 in the test on HCC-2998 colon was 1.44 µM; in the test with T-47D breast it was 0.809 µM; in the test on DU-145 prostate, 1.09 µM; with NCI-H226 lung it was 1.24 µM; in the test on 786-0 renal, 1.71 µM; with UACC-62 melanoma, 0.52 µM. Besides, the GI50 with OVCAR-8 ovarian is 0.584 µM. The TGI in the test with HCC-2998 colon amounted to 3.1 µM; in the test with T-47D breast, 5.41 µM; with DU-145 prostate, 7.81 µM; in the test with NCI-H226 lung, 3.05 µM; with 786-0 renal, 3.41 µM; in the test with UACC-62 melanoma, 2.64 µM. Moreover, the TGI in the test on OVCAR-8 ovarian is 4.16 µM.
`CC(=O)O[C@@H]1CC(C)C2CC2C2=C(C(O)OC2O)[C@@H]1C(C)CCC=C(C)C` (stereo partly drawn): the TGI was 40.5 µM in the test on HCC-2998 colon; 47.6 µM in the test with UO-31 renal; 36.5 µM in the test with NCI-H226 lung; 40.3 µM in the test on 786-0 renal; 51.1 µM in the test with IGROV1 ovarian; 67.3 µM with UACC-62 melanoma. Besides, in the test with OVCAR-8 ovarian, the TGI came to 73 µM.
Consider `Cl.Fc1c[c-]c(-c2ccccn2)c(F)c1.[Pt].c1ccc([PH+](CC[PH+](c2ccccc2)c2ccccc2)c2ccccc2)cc1`, for which the GI50 in the test on PC-3 prostate was 0.0514 µM; in the test on T-47D breast it was 0.0912 µM; in the test with DU-145 prostate, 0.0656 µM; in the test with UO-31 renal, 0.254 µM; in the test with NCI-H226 lung, 0.184 µM; with 786-0 renal, 0.231 µM. In the test with UACC-62 melanoma, the GI50 was 0.128 µM. Also, the TGI was 1.09 µM in the test with PC-3 prostate; 1.39 µM in the test on T-47D breast; 1.2 µM in the test with DU-145 prostate; 0.93 µM in the test on UO-31 renal; 1.13 µM in the test on NCI-H226 lung; 1.06 µM in the test with 786-0 renal. Further, the TGI with UACC-62 melanoma is 0.364 µM.
